# Earlier results in patent US20250026710A1, “PROCESS FOR PREPARING A BENZOATE SALT OF A 1-(3-AMINOPYRROLIDINE-1-CARBONYL)-3,4-DIPHENYLBENZENE COMPOUND” (Astex Pharmaceuticals, Inc., priority 2021, published 2025).
# Counter-ions that a name gives are not always drawn.
# How the values were obtained:
# [1] = rats, dose 32 mg/5 mL/kg; listed as benzoic acid salt of Compound (A)
# [2] = under the tested conditions of WO 2021/095835
compound,measurement,setting,value
CC(C)(O)Cc1ccc(-c2ccc(C(=O)N3CC[C@H](N)C3)cc2-c2ccc(C#N)c(F)c2)c(F)c1 [benzoate salt of Compound (A)],Cmax,[1],2680 nM
same,Tmax,[1],2.7 h
same,solid stability,[2],superior solid stability and maintains its purity up to four weeks
